pIC50: −log10 of the molar value.
Target: T1, ALK (baculovirus expressed human ALK kinase domain F1098-K1410) (Homo sapiens, UniProt Q9UM73)
T1 construct: baculovirus expressed human ALK kinase domain F1098-K1410; made in house
Test: Luciferase-Coupled Chemiluminescent Kinase assay (LCCA), ALK biochemical activity
Settings: inhibition of ALK; mean values; 1 μM ATP, 4 μM poly-AEKY, 12 nM ALK, 2 hours ambient temperature
Summary of the method: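 Luciferase-coupled readout of ATP remaining after reaction of 12 nM ALK kinase domain with 1 μM ATP and 4 μM poly-AEKY, Tris-HCl pH 7.5 buffer with MgCl2 and MnCl2. Incubated 2 h at ambient temperature; inhibition derived from ATP consumption across serial compound dilutions.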

T1 sequence (Q9UM73 1098-1410): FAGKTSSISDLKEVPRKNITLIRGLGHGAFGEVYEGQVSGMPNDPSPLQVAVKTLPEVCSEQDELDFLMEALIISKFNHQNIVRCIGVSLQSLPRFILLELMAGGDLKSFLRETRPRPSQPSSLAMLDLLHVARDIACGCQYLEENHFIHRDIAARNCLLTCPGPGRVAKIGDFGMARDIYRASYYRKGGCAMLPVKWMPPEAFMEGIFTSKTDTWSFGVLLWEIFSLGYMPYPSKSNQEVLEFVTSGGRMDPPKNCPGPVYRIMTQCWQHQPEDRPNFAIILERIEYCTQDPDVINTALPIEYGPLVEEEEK

SMILES | pIC50
COc1cc2c(-c3ccc(O)c(Cl)c3)nc3[nH]nc(C)c3c2cc1OC(C)C [Example 133, 2-chloro-4-[1-methyl-8-[(1-methylethyl)oxy]-7-(methyloxy)-3H-pyrazolo[3,4-c]isoquinolin-5-yl]phenol] | ≥ 7.00
COc1cc2c(-c3ccc(O)c(Cl)c3)nc3[nH]nc(C)c3c2cc1OCC(C)C [Example 134, 2-chloro-4-{1-methyl-7-(methyloxy)-8-[(2-methylpropyl)oxy]-3H-pyrazolo[3,4-c]isoquinolin-5-yl}phenol] | 6.00 to 7.00
COCCOc1cc2c(cc1OC)c(-c1cc(Br)c(O)cc1F)nc1[nH]nc(C)c12 [Example 135, 2-bromo-5-fluoro-4-(1-methyl-7-(methyloxy)-8-{[2-(methyloxy)ethyl]oxy}-3H-pyrazolo[3,4-c]isoquinolin-5-yl)phenol] | ≥ 7.00
COc1cc2c(-c3ccc(O)c(Cl)c3)nc3[nH]ncc3c2cc1OC [Example 136, 4-[7,8-bis(methyloxy)-3H-pyrazolo[3,4-c]isoquinolin-5-yl]-2-chlorophenol] | 6.00 to 7.00
COc1cc2c(-c3ccc(O)c(Cl)c3)nc3[nH]nc(C(F)(F)F)c3c2cc1OC [Example 137, 4-[7,8-bis(methyloxy)-1-(trifluoromethyl)-3H-pyrazolo[3,4-c]isoquinolin-5-yl]-2-chlorophenol] | 6.00 to 7.00
Cc1n[nH]c2nc(-c3ccc(O)c(Cl)c3)c3cc4c(cc3c12)OCO4 [Example 139, 2-chloro-4-(1-methyl-3H-[1,3]dioxolo[4,5-g]pyrazolo[3,4-c]isoquinolin-5-yl)phenol] | ≥ 7.00
Cc1n[nH]c2nc(-c3ccc(O)c(Cl)c3)c3cc4c(cc3c12)OCCO4 [Example 140, 2-chloro-4-(1-methyl-8,9-dihydro-3H-[1,4]dioxino[2,3-g]pyrazolo[3,4-c]isoquinolin-5-yl)phenol] | ≥ 7.00
Cc1n[nH]c2nc(-c3ccc(O)c(Cl)c3)c3cc4c(cc3c12)OCCCO4 [Example 141, 2-chloro-4-(1-methyl-9,10-dihydro-3H,8H-[1,4]dioxepino[2,3-g]pyrazolo[3,4-c]isoquinolin-5-yl)phenol] | ≥ 7.00
COc1cc2c(cc1OC(F)F)c(-c1ccc(O)c(Cl)c1)nc1[nH]nc(C)c12 [Example 142, 2-chloro-4-[7-[(difluoromethyl)oxy]-1-methyl-8-(methyloxy)-3H-pyrazolo[3,4-c]isoquinolin-5-yl]phenol] | ≥ 7.00
COCCOc1cc(F)c2c(-c3cc(Cl)c(O)cc3F)nc3[nH]nc(C)c3c2c1F [Example 144, 2-chloro-4-(6,9-difluoro-1-methyl-8-{[2-(methyloxy)ethyl]oxy}-3H-pyrazolo[3,4-c]isoquinolin-5-yl)-5-fluorophenol] | ≥ 7.00
Cc1n[nH]c2nc(-c3ccc(O)c(Cl)c3)c3ccc4c(c3c12)OCCO4 [Example 145, 2-chloro-4-(11-methyl-2,3-dihydro-9H-[1,4]dioxino[2,3-f]pyrazolo[3,4-c]isoquinolin-7-yl)phenol] | ≥ 7.00
Cc1n[nH]c2nc(-c3cc(Cl)c(O)cc3F)c3ccc4c(c3c12)OCCO4 [Example 146, 2-chloro-5-fluoro-4-(11-methyl-2,3-dihydro-9H-[1,4]dioxino[2,3-f]pyrazolo[3,4-c]isoquinolin-7-yl)phenol] | ≥ 7.00
COc1cc2c(c(-c3ccc(O)c(Cl)c3)nc3[nH]nc(C)c32)c(OC)c1OC [Example 147, 2-chloro-4-[1-methyl-6,7,8-tris(methyloxy)-3H-pyrazolo[3,4-c]isoquinolin-5-yl]phenol] | ≥ 7.00
Cc1n[nH]c2nc(-c3cccc(Cl)c3)c3ccc4c(c3c12)OCCO4 [Example 149, 7-(3-chlorophenyl)-11-methyl-2,3-dihydro-9H-[1,4]dioxino[2,3-f]pyrazolo[3,4-c]isoquinoline] | < 5.70
COc1cc2c(-c3ccc(O)c(Cl)c3)nc3[nH]nc(C)c3c2cc1OCC1CCCO1 (stereo not drawn) [Example 151, 2-chloro-4-{1-methyl-7-(methyloxy)-8-[(tetrahydrofuran-2-ylmethyl)oxy]-3H-pyrazolo[3,4-c]isoquinolin-5-yl}phenol] | ≥ 7.00
COc1c(OC)c(F)c2c(c(-c3cc(Cl)c(O)cc3F)nc3[nH]nc(C)c32)c1OC [Example 154, 2-chloro-5-fluoro-4-[9-fluoro-1-methyl-6,7,8-tris(methyloxy)-3H-pyrazolo[3,4-c]isoquinolin-5-yl]phenol] | ≥ 7.00
COCCOc1cc(F)c2c(-c3ccccc3F)nc3[nH]nc(C)c3c2c1F [Example 156, 6,9-difluoro-5-(2-fluorophenyl)-1-methyl-8-{[2-(methyloxy)ethyl]oxy}-3H-pyrazolo[3,4-c]isoquinoline] | < 5.70
Cc1n[nH]c2nc(-c3ccc(O)c(Cl)c3)c3c(F)cc(OC(F)F)c(F)c3c12 [Example 157, 2-chloro-4-{8-[(difluoromethyl)oxy]-6,9-difluoro-1-methyl-3H-pyrazolo[3,4-c]isoquinolin-5-yl}phenol] | ≥ 7.00
Cc1n[nH]c2nc(-c3ccc(O)cc3F)c3c(F)cc4c(c3c12)OCCO4 [Example 164, 3-fluoro-4-(6-fluoro-11-methyl-2,3-dihydro-9H-[1,4]dioxino[2,3-f]pyrazolo[3,4-c]isoquinolin-7-yl)phenol] | ≥ 7.00
Cc1n[nH]c2nc(-c3cc(Cl)c(O)cc3F)c3c(F)cc4c(c3c12)OCCO4 [Example 165, 2-chloro-5-fluoro-4-(6-fluoro-11-methyl-2,3-dihydro-9H-[1,4]dioxino[2,3-f]pyrazolo[3,4-c]isoquinolin-7-yl)phenol] | ≥ 7.00
COc1cc2c(-c3ccc(O)c(Cl)c3)nc3[nH]nc(C)c3c2cc1OC1CCCC1 [Example 166, 2-chloro-4-[8-(cyclopentyloxy)-1-methyl-7-(methyloxy)-3H-pyrazolo[3,4-c]isoquinolin-5-yl]phenol] | ≥ 7.00
COCCOc1cc2c(cc1C(C)C)c(-c1ccc(O)c(Cl)c1)nc1[nH]nc(C)c12 [Example 167, 2-chloro-4-(1-methyl-7-(1-methylethyl)-8-{[2-(methyloxy)ethyl]oxy}-3H-pyrazolo[3,4-c]isoquinolin-5-yl)phenol] | ≥ 7.00
CCc1c(OC)ccc2c(-c3ccc(O)c(Cl)c3)nc3[nH]nc(C)c3c12 [Example 168, 2-chloro-4-[9-ethyl-1-methyl-8-(methyloxy)-3H-pyrazolo[3,4-c]isoquinolin-5-yl]phenol] | ≥ 7.00
Cc1n[nH]c2nc(-c3ccc(O)c(Cl)c3)c3c(F)cc(OCC4CCN(C)CC4)c(F)c3c12 [Example 169, 2-chloro-4-(6,9-difluoro-1-methyl-8-{[(1-methylpiperidin-4-yl)methyl]oxy}-3H-pyrazolo[3,4-c]isoquinolin-5-yl)phenol] | ≥ 7.00

Second part, the compound after the results:

pIC50 | SMILES
6.00 to 7.00 | COCc1n[nH]c2nc(-c3ccc(O)c(Cl)c3)c3cc(OC)c(OC)cc3c12 [Example 138, 4-{7,8-bis(methyloxy)-1-[(methyloxy)methyl]-3H-pyrazolo[3,4-c]isoquinolin-5-yl}-2-chlorophenol]
≥ 7.00 | COCCOc1cc(F)c2c(-c3cc(Cl)c(O)cc3F)nc3[nH]nc(C)c3c2c1OC [Example 143, 2-chloro-5-fluoro-4-(6-fluoro-1-methyl-9-(methyloxy)-8-{[2-(methyloxy)ethyl]oxy}-3H-pyrazolo[3,4-c]isoquinolin-5-yl)phenol]
≥ 7.00 | COCCOc1cc(F)c2c(-c3cc(Br)c(O)cc3F)nc3[nH]nc(C)c3c2c1F [Example 148, 2-bromo-4-(6,9-difluoro-1-methyl-8-{[2-(methyloxy)ethyl]oxy}-3H-pyrazolo[3,4-c]isoquinolin-5-yl)-5-fluorophenol]
≥ 7.00 | Cc1n[nH]c2nc(-c3cc(Cl)c(O)cc3F)c3c(F)c4c(cc3c12)OCCO4 [Example 150, 2-chloro-5-fluoro-4-(6-fluoro-1-methyl-8,9-dihydro-3H-[1,4]dioxino[2,3-g]pyrazolo[3,4-c]isoquinolin-5-yl)phenol]
≥ 7.00 | COc1cc2c(-c3ccc(O)c(Cl)c3)nc3[nH]nc(C)c3c2cc1OCC1CCCCO1 (stereo not drawn) [Example 152, 2-chloro-4-{1-methyl-7-(methyloxy)-8-[(tetrahydro-2H-pyran-2-ylmethyl)oxy]-3H-pyrazolo[3,4-c]isoquinolin-5-yl}phenol]
6.00 to 7.00 | COc1cc2c(-c3ccc(O)c(Cl)c3)nc3[nH]nc(C)c3c2cc1OCC(F)(F)F [Example 153, 2-chloro-4-{1-methyl-7-(methyloxy)-8-[(2,2,2-trifluoroethyl)oxy]-3H-pyrazolo[3,4-c]isoquinolin-5-yl}phenol]
≥ 7.00 | Cc1n[nH]c2nc(-c3ccc(O)c(Cl)c3)c3c(F)cc(O)c(F)c3c12 [Example 155, 5-(3-chloro-4-hydroxyphenyl)-6,9-difluoro-1-methyl-3H-pyrazolo[3,4-c]isoquinolin-8-ol]
≥ 7.00 | Cc1n[nH]c2nc(-c3cc(Cl)c(O)cc3F)c3c(F)c4c(c(F)c3c12)OCCO4 [Example 158, 2-chloro-4-(6,11-difluoro-1-methyl-8,9-dihydro-3H-[1,4]dioxino[2,3-g]pyrazolo[3,4-c]isoquinolin-5-yl)-5-fluorophenol]
6.00 to 7.00 | Cc1n[nH]c2cc(-c3ccc(O)cc3)c3ccccc3c12 [Example 159, 4-(1-methyl-3H-benzo[e]indazol-5-yl)phenol]
6.00 to 7.00 | Cc1n[nH]c2nc(-c3ccccc3F)c3c(F)cc4c(c3c12)OCCO4 [Example 160, 6-fluoro-7-(2-fluorophenyl)-11-methyl-2,3-dihydro-9H-[1,4]dioxino[2,3-f]pyrazolo[3,4-c]isoquinoline]
≥ 7.00 | COc1cc2c(-c3ccc(O)c(Cl)c3)nc3[nH]nc(C)c3c2cc1OCC1CCOCC1 [Example 161, 2-chloro-4-{1-methyl-7-(methyloxy)-8-[(tetrahydro-2H-pyran-4-ylmethyl)oxy]-3H-pyrazolo[3,4-c]isoquinolin-5-yl}phenol]
≥ 7.00 | CCOCCOc1cc2c(cc1OC)c(-c1ccc(O)c(Cl)c1)nc1[nH]nc(C)c12 [Example 162, 2-chloro-4-[8-{[2-(ethyloxy)ethyl]oxy}-1-methyl-7-(methyloxy)-3H-pyrazolo[3,4-c]isoquinolin-5-yl]phenol]
